Laboratory results: ChEMBL document CHEMBL6087466, “The Potential of PARP Inhibitors as Antitumor Drugs and the Perspective of Molecular Design” (J Med Chem, 2025)

Key:
[1] = target: Poly [ADP-ribose] polymerase 1 (Homo sapiens, UniProt P09874); test: Inhibition of PARP1 (unknown origin)
SK-OV-3 = test: Antiproliferative activity against human SK-OV-3 cells assessed as reduction in cell growth by SRB assay; format: functional, cell-based

Chain of Poly [ADP-ribose] polymerase 1 (P09874 whole entry): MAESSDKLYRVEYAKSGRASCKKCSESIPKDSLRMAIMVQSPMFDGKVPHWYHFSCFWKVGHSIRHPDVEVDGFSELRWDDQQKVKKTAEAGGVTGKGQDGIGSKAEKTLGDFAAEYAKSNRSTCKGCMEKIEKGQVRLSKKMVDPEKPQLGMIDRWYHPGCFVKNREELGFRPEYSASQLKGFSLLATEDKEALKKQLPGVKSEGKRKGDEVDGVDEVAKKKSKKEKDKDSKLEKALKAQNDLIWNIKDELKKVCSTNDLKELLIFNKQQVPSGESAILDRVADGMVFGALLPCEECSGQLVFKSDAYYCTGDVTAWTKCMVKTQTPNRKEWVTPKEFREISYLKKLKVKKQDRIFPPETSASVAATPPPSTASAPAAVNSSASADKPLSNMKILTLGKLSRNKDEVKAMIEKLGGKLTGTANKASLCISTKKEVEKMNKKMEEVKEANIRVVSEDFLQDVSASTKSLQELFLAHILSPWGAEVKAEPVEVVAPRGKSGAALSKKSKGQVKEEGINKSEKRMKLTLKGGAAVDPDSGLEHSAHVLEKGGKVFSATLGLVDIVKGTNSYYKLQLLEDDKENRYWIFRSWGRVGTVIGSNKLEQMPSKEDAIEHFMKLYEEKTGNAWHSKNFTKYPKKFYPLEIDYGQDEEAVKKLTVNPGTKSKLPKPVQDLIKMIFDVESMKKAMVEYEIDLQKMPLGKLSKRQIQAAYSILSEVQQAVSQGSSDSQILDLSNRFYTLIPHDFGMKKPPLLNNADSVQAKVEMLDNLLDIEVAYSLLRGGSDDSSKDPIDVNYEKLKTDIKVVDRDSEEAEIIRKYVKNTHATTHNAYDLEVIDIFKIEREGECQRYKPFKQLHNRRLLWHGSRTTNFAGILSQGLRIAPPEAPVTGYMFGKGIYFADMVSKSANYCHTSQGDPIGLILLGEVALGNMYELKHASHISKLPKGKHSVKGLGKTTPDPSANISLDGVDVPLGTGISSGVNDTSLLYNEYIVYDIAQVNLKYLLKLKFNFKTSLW

Compound | IC50 [1] [nM] | IC50 (SK-OV-3) [nM]
NC(=O)c1cccc2[nH]c(CCCCCCOc3cc(O)c4c(=O)cc(-c5ccccc5)oc4c3)nc12 | 93 | 
CCNC(=S)N/N=C/c1ccc(-c2nc3c(oc4ccccc43)c(=O)[nH]2)cc1 | 26 | 4980
N#Cc1ccc(N2CCN([C@H]3C=C(c4cc5ncccc5c(=O)[nH]4)CC3)CC2)cc1 | 1 | 
